Experimental findings from US20250034153A1, “TRIAZOLOPYRIMIDINES AS A2A / A2B INHIBITORS” (Incyte Corporation, priority 2019, published 2025) are described below.

A value given as a limit tells only on which side of the number the result lay.

The target of test [1] is human adenosine A2B receptor (Homo sapiens (Human), UniProt P29275). The experiment in a line: Adenosine A2B receptor cyclic AMP GS assay (Example B). Type of test: cell-based. To be noted: HEK-293 cells expressing human A2B, agonist NECA 12 nM, cAMP accumulation (FRET); read-out: A2B_cAMP_EC50. How it is done: Example B. Adenosine A2B Receptor Cyclic AMP GS Assay
human adenosine A2B receptor, sequence (P29275 whole entry): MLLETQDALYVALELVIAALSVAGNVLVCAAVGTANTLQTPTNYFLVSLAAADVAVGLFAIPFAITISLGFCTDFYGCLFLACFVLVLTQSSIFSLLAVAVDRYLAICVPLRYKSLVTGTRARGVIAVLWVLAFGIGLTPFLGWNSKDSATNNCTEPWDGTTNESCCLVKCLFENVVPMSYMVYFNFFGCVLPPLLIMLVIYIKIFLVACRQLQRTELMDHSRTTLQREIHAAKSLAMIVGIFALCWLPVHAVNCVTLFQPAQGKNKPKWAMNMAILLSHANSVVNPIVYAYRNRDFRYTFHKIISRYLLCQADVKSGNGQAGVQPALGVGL
Stably transfected HEK-293 cells expressing the human adenosine A2B receptor (Perkin Elmer) were maintained in MEM culture medium with 10% FBS and 100 μg/ml Geneticin (Life Technologies). 18 to 24 hours prior to assay, geneticin was removed from culture. The cisbio cAMP-GS Dynamic kit utilizing the FRET (Fluorescence Resonance Energy Transfer) technology was used to measure cAMP accumulation in the cells. Compounds of the present disclosure at an appropriate concentration were mixed with 10000 cells/well in white 96 well half area plates (Perkin Elmer) for 30 min at RT gently shaking. Agonist, NECA (R&D Technologies) at 12 nM was added to each well for 60 min at RT gently shaking. Detection reagents, d2-labeled cAMP (acceptor) and anti-cAMP cryptate (donor) were added to each well for 60 min at RT gently shaking. Plates were read on Pherastar (BMG Labtech), fluorescence ratio 665/620 was calculated and EC50 determination was performed by fitting the curve of percent of control versus the log of the compound concentration using GraphPad Prism.
A general note: cAMP levels reflect the balance of adenylyl cyclase and phosphodiesterase activity.

A further test deals with Adenosine A2A (Homo sapiens (Human), UniProt P29274). The experiment in a line: A2A Tag-lite HTRF assay (Example C). To be noted: Tag-lite Adenosine A2A labeled cells, Red antagonist fluorescent ligand 12.5 nM, one-site competitive binding; read-out: A2A_Ki. On the procedure: Example C. A2A Tag-Lite® HTRF Assay
Adenosine A2A, sequence (P29274 whole entry): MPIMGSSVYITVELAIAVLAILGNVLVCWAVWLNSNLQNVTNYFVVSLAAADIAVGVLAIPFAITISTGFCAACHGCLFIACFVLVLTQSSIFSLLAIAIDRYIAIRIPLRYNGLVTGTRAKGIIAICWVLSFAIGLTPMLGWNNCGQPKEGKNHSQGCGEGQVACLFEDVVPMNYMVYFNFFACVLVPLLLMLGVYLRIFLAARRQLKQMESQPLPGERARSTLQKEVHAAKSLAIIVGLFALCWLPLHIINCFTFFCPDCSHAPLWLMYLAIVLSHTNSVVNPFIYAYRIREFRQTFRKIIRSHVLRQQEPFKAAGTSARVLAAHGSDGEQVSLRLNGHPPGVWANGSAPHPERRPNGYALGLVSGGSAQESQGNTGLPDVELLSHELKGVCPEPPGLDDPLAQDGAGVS
Assays were conducted in black low volume 384-well polystyrene plates (Greiner 784076-25) in a final volume of 10 μL. Test compounds were first serially diluted in DMSO and 100 nl added to the plate wells before the addition of other reaction components. The final concentration of DMSO was 1%. Tag-lite® Adenosine A2A labeled cells (CisBio C1TT1A2A) were diluted 1:5 into Tag-lite buffer (CisBio LABMED) and spun 1200 g for 5 mins. The pellet was resuspended at a volume 10.4× the initial cell suspension volume in Tag-lite buffer, and Adenosine A2A Receptor Red antagonist fluorescent ligand (CisBio L0058RED) added at 12.5 nM final concentration. 10 ul of the cell and ligand mix was added to the assay wells and incubated at room temperature for 45 minutes before reading on a PHERAstar FS plate reader (BMG Labtech) with HTRF 337/620/665 optical module. Percent binding of the fluorescent ligand was calculated; where 100 nM of A2A antagonist control ZM 241385 (Tocris 1036) displaces the ligand 100% and 1% DMSO has 0% displacement. The % binding data versus the log of the inhibitor concentration was fitted to a one-site competitive binding model (GraphPad Prism version 7.02) where the ligand constant=12.5 nM and the ligand Kd=1.85 nM.
In general terms: In TR-FRET formats the signal depends on donor and acceptor labels being close together.

As for `N#Cc1cccc(-c2nc(N)n3nc(Cn4nnnc4-c4ncccn4)nc3c2-c2ccncn2)c1` [Example 51, 3-(5-amino-2-((5-(pyrimidin-2-yl)-1H-tetrazol-1-yl)methyl)-8-(pyrimidin-4-yl)-[1,2,4]triazolo[1,5-c]pyrimidin-7-yl)benzonitrile], the EC50 in test [1] is ≤ 10 nM. Also, the Ki at Adenosine A2A is ≤ 10 nM.
In the case of `Cn1nc(-c2c(-c3cccc(C#N)c3)nc(N)n3nc(Cc4ccccn4)nc23)ccc1=O` [Example 27, 3-(5-amino-8-(1-methyl-6-oxo-1,6-dihydropyridazin-3-yl)-2-(pyridin-2-ylmethyl)-[1,2,4]triazolo[1,5-c]pyrimidin-7-yl)benzonitrile], the EC50 in test [1] was ≤ 10 nM. Further, at Adenosine A2A, the Ki is ≤ 10 nM.
Turning to `Cc1cccnc1COc1nc2c(-c3ccc(=O)n(C)n3)c(-c3cccc(C#N)c3)nc(N)n2n1` [Example 19, 3-(5-amino-8-(1-methyl-6-oxo-1,6-dihydropyridazin-3-yl)-2-((3-methylpyridin-2-yl)methoxy)-[1,2,4]triazolo[1,5-c]pyrimidin-7-yl)benzonitrile], the EC50 in test [1] was ≤ 10 nM. The Ki at Adenosine A2A was ≤ 10 nM.
On to `N#Cc1cccc(-c2nc(N)n3nc(Cn4nnnc4-c4ccccn4)nc3c2-c2ccnc(N)c2)c1` [Example 12, 3-(5-amino-8-(2-aminopyridin-4-yl)-2-((5-(pyridin-2-yl)-1H-tetrazol-1-yl)methyl)-[1,2,4]triazolo[1,5-c]pyrimidin-7-yl)benzonitrile], for which the EC50 in test [1] was ≤ 10 nM. For the same compound, on Adenosine A2A, the Ki is ≤ 10 nM.
On to `Cn1cc(-c2c(-c3cccc(C#N)c3)nc(N)n3nc(OCc4ncccc4F)nc23)ccc1=O` [Example 29, 3-(5-amino-2-((3-fluoropyridin-2-yl)methoxy)-8-(1-methyl-6-oxo-1,6-dihydropyridin-3-yl)-[1,2,4]triazolo[1,5-c]pyrimidin-7-yl)benzonitrile], for which the EC50 in test [1] was ≤ 10 nM. For the same compound, at Adenosine A2A, the Ki was ≤ 10 nM.
For the compound `N#Cc1cccc(-c2nc(N)n3nc(COc4ccccn4)nc3c2-c2ccncn2)c1` [Example 41, 3-(5-amino-2-((pyridin-2-yloxy)methyl)-8-(pyrimidin-4-yl)-[1,2,4]triazolo[1,5-c]pyrimidin-7-yl)benzonitrile], the EC50 in test [1] is ≤ 10 nM. In addition, at Adenosine A2A, the Ki is ≤ 10 nM.
`COc1cc(-c2c(-c3cccc(C#N)c3)nc(N)n3nc(COc4ncccc4C#N)nc23)cc(C)n1` [Example 47, 2-((5-amino-7-(3-cyanophenyl)-8-(2-methoxy-6-methylpyridin-4-yl)-[1,2,4]triazolo[1,5-c]pyrimidin-2-yl)methoxy)nicotinonitrile]: the EC50 in test [1] was in the range of 10 to 100 nM. Moreover, the Ki at Adenosine A2A was ≤ 10 nM.
As for `Cn1nc(-c2c(-c3cccc(C#N)c3)nc(N)n3nc(COc4ncccc4C#N)nc23)ccc1=O` [Example 44, 2-((5-amino-7-(3-cyanophenyl)-8-(1-methyl-6-oxo-1,6-dihydropyridazin-3-yl)-[1,2,4]triazolo[1,5-c]pyrimidin-2-yl)methoxy)nicotinonitrile], the EC50 in test [1] lay within 10 to 100 nM. The Ki on Adenosine A2A was ≤ 10 nM.
Regarding `N#Cc1cccc(-c2nc(N)n3nc(Nc4ccccn4)nc3c2-c2ccncn2)c1` [Example 34, 3-(5-amino-2-(pyridin-2-ylamino)-8-(pyrimidin-4-yl)-[1,2,4]triazolo[1,5-c]pyrimidin-7-yl)benzonitrile], in test [1], the EC50 is ≤ 10 nM. For the same compound, the Ki at Adenosine A2A was ≤ 10 nM.
As to `N#Cc1cccc(-c2nc(N)n3nc(Cn4nnnc4-c4cccnc4)nc3c2-c2ccncn2)c1` [Example 53, 3-(5-amino-2-((5-(pyridin-3-yl)-1H-tetrazol-1-yl)methyl)-8-(pyrimidin-4-yl)-[1,2,4]triazolo[1,5-c]pyrimidin-7-yl)benzonitrile], the EC50 in test [1] was ≤ 10 nM. The Ki at Adenosine A2A was ≤ 10 nM.
Consider `CCn1cc(-c2c(-c3cccc(C#N)c3F)nc(N)n3nc(NCc4ncccc4C)nc23)ccc1=O` [Example 24, 3-(5-amino-8-(1-ethyl-6-oxo-1,6-dihydropyridin-3-yl)-2-(((3-methylpyridin-2-yl)methyl)amino)-[1,2,4]triazolo[1,5-c]pyrimidin-7-yl)-2-fluorobenzonitrile], for which, in test [1], the EC50 fell in the range of 10 to 100 nM. Moreover, the Ki on Adenosine A2A is ≤ 10 nM.
On to `N#Cc1cccc(-c2nc(N)n3nc(Cn4nnnc4-c4ccncn4)nc3c2-c2ccncn2)c1` [Example 52, 3-(5-amino-8-(pyrimidin-4-yl)-2-((5-(pyrimidin-4-yl)-1H-tetrazol-1-yl)methyl)-[1,2,4]triazolo[1,5-c]pyrimidin-7-yl)benzonitrile], for which the EC50 in test [1] was ≤ 10 nM. The Ki at Adenosine A2A was ≤ 10 nM.
On to `Cn1cc(-c2c(-c3cccc(C#N)c3)nc(N)n3nc(COc4ncccc4C#N)nc23)ccc1=O` [Example 43, 2-((5-amino-7-(3-cyanophenyl)-8-(1-methyl-6-oxo-1,6-dihydropyridin-3-yl)-[1,2,4]triazolo[1,5-c]pyrimidin-2-yl)methoxy)nicotinonitrile], for which the EC50 in test [1] is ≤ 10 nM. Also, the Ki on Adenosine A2A was ≤ 10 nM.
For `Cn1cc(-c2c(-c3cccc(C#N)c3)nc(N)n3nc(Cn4nnnc4-c4ccccn4)nc23)ccc1=O` [Example 4, 3-(5-amino-8-(1-methyl-6-oxo-1,6-dihydropyridin-3-yl)-2-((5-(pyridin-2-yl)-1H-tetrazol-1-yl)methyl)-[1,2,4]triazolo[1,5-c]pyrimidin-7-yl)benzonitrile], the EC50 in test [1] was in the range of 10 to 100 nM. At Adenosine A2A, the Ki is ≤ 10 nM.
On to `CN(C)c1cc(-c2c(-c3cccc(C#N)c3)nc(N)n3nc(Cn4nnnc4-c4ccccn4)nc23)ccn1` [Example 11, 3-(5-amino-8-(2-(dimethylamino)pyridin-4-yl)-2-((5-(pyridin-2-yl)-1H-tetrazol-1-yl)methyl)-[1,2,4]triazolo[1,5-c]pyrimidin-7-yl)benzonitrile], for which, in test [1], the EC50 was ≤ 10 nM. The Ki at Adenosine A2A is ≤ 10 nM.
On to `CCn1cc(-c2c(-c3cccc(C#N)c3)nc(N)n3nc(OCc4ncccc4C)nc23)ccc1=O` [Example 22, 3-(5-amino-8-(1-ethyl-6-oxo-1,6-dihydropyridin-3-yl)-2-((3-methylpyridin-2-yl)methoxy)-[1,2,4]triazolo[1,5-c]pyrimidin-7-yl)benzonitrile], for which the EC50 in test [1] fell in the range of 10 to 100 nM. For the same compound, the Ki at Adenosine A2A was ≤ 10 nM.
The matching figures for `CCn1cc(-c2c(-c3cccc(C#N)c3)nc(N)n3nc(NCc4ncccc4C)nc23)ccc1=O` [Example 16, 3-(5-amino-8-(1-ethyl-6-oxo-1,6-dihydropyridin-3-yl)-2-(((3-methylpyridin-2-yl)methyl)amino)-[1,2,4]triazolo[1,5-c]pyrimidin-7-yl)benzonitrile]: ≤ 10 nM and ≤ 10 nM.
The matching figures for `Cc1cccc(COc2nc3c(-c4ccncc4C)c(-c4cccc(C#N)c4)nc(N)n3n2)n1` [Example 57, 3-(5-amino-2-((6-methylpyridin-2-yl)methoxy)-8-(3-methylpyridin-4-yl)-[1,2,4]triazolo[1,5-c]pyrimidin-7-yl)benzonitrile]: 10 to 100 nM and ≤ 10 nM.
On the same counts, the results for `Cc1cccc(CNc2nc3c(-c4ccc(=O)n(C)n4)c(-c4cccc(C#N)c4)nc(N)n3n2)n1` [Example 67, 3-(5-amino-8-(1-methyl-6-oxo-1,6-dihydropyridazin-3-yl)-2-(((6-methylpyridin-2-yl)methyl)amino)-[1,2,4]triazolo[1,5-c]pyrimidin-7-yl)benzonitrile] are 10 to 100 nM and ≤ 10 nM.
On to `COc1cc(-c2c(-c3cccc(C#N)c3)nc(N)n3nc(NCc4cccc(C)n4)nc23)cc(C)n1` [Example 70, 3-(5-amino-8-(2-methoxy-6-methylpyridin-4-yl)-2-(((6-methylpyridin-2-yl)methyl)amino)-[1,2,4]triazolo[1,5-c]pyrimidin-7-yl)benzonitrile], for which the EC50 in test [1] was 100 to 1000 nM. Moreover, the Ki at Adenosine A2A was ≤ 10 nM.
As to `Cn1cc(-c2c(-c3cccc(C#N)c3)nc(N)n3nc(Cn4nnnc4-c4cscn4)nc23)ccc1=O` [Example 6, 3-(5-amino-8-(1-methyl-6-oxo-1,6-dihydropyridin-3-yl)-2-((5-(thiazol-4-yl)-1H-tetrazol-1-yl)methyl)-[1,2,4]triazolo[1,5-c]pyrimidin-7-yl)benzonitrile], in test [1], the EC50 was 10 to 100 nM. Also, the Ki on Adenosine A2A was ≤ 10 nM.
